{"source": "ChEMBL document CHEMBL1201862", "about": "“PubChem BioAssay data set” (2004)", "key": {"[1]": {"test": "growth induction of Burl-1 ts yeast mutant, dose response, counter-screen for SUMOylation pathway inhibitor project, whole organism, S. cerevisiae, luminescence (AID 463199)", "assay_type": "functional"}, "SUMO-activating enzyme [2]": {"biological_target": "T1, SUMO-activating enzyme (Homo sapiens, UniProt Q9UBT2)", "T1 sequence (Q9UBE0 whole entry)": "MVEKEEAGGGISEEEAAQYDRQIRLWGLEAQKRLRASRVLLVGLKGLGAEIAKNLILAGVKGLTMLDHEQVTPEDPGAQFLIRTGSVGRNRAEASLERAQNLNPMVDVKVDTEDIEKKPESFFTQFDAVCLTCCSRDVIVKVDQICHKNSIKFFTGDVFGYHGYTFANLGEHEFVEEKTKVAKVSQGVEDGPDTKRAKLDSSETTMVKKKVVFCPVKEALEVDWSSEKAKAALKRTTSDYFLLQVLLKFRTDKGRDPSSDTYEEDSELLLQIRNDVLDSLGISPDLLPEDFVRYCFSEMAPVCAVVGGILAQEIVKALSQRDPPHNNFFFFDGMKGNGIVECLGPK", "T1 sequence (Q9UBT2 whole entry)": "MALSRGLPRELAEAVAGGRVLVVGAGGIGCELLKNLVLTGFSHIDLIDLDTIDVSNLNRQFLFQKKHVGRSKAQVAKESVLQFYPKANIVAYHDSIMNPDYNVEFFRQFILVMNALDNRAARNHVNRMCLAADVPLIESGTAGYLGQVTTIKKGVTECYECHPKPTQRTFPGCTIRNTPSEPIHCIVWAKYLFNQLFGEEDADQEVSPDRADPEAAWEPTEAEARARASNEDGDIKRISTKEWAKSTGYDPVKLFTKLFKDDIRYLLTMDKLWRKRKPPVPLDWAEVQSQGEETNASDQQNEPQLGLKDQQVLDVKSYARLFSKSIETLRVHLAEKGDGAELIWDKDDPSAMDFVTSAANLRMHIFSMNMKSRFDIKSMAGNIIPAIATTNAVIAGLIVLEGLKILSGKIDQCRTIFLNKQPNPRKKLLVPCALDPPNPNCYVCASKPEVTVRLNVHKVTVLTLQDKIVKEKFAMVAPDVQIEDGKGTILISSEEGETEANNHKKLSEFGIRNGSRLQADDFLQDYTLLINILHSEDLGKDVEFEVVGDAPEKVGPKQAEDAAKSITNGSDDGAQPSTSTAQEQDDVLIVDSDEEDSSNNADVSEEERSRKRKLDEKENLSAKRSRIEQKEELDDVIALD", "test": "SUMOylation inhibitor hit validation, confirmation, SUMOylation inhibitor project, biochemical, AlphaScreen (AID 2018)", "assay_type": "functional"}, "SUMO-activating enzyme [3]": {"biological_target": "T1, SUMO-activating enzyme", "test": "inhibitors of in vitro SUMOylation cascade, primary screen, biochemical, HTRF, uHTS (AID 2006)", "assay_type": "protein-complex assay"}, "SUMO E1/E2": {"biological_target": "SUMO E1/E2 (Homo sapiens, UniProt P63279+Q9UBE0+Q9UBT2)", "sequence (Q9UBE0 whole entry)": "as the sequence (Q9UBE0 whole entry) above", "sequence (Q9UBT2 whole entry)": "as the sequence (Q9UBT2 whole entry) above", "sequence (P63279 whole entry)": "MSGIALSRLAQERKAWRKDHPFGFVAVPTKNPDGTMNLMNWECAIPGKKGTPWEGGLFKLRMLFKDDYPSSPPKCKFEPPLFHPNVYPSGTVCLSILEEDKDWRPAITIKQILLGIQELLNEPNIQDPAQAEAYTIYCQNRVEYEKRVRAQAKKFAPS", "test": "SAR analysis of SUMOylation using HTRF in an in-Vitro dose response assay. [Related pubchem assays (depositor defined):AID2006, AID2011, AID2018, AID2069, AID2658]", "assay_type": "functional"}, "[4]": {"biological_target": "Eukaryotic translation initiation factor 4E (Mus musculus, UniProt P63073)", "sequence (P63073 whole entry)": "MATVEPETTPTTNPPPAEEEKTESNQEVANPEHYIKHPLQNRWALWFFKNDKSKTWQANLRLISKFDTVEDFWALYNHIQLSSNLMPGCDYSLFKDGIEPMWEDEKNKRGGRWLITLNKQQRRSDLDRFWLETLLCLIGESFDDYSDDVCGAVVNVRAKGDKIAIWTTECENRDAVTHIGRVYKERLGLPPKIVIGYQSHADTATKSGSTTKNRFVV", "test": "eIF4E–eIF4G protein interaction inhibitors, dose response, biochemical, TR-FRET (AID 855);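 note: potency for disrupting eIF4E binding to eIF4GI seen as loss of FRET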", "assay_type": "functional"}, "Hexokinase HKDC1": {"biological_target": "Hexokinase HKDC1 (Homo sapiens, UniProt Q2TB90)", "sequence (Q2TB90 whole entry)": "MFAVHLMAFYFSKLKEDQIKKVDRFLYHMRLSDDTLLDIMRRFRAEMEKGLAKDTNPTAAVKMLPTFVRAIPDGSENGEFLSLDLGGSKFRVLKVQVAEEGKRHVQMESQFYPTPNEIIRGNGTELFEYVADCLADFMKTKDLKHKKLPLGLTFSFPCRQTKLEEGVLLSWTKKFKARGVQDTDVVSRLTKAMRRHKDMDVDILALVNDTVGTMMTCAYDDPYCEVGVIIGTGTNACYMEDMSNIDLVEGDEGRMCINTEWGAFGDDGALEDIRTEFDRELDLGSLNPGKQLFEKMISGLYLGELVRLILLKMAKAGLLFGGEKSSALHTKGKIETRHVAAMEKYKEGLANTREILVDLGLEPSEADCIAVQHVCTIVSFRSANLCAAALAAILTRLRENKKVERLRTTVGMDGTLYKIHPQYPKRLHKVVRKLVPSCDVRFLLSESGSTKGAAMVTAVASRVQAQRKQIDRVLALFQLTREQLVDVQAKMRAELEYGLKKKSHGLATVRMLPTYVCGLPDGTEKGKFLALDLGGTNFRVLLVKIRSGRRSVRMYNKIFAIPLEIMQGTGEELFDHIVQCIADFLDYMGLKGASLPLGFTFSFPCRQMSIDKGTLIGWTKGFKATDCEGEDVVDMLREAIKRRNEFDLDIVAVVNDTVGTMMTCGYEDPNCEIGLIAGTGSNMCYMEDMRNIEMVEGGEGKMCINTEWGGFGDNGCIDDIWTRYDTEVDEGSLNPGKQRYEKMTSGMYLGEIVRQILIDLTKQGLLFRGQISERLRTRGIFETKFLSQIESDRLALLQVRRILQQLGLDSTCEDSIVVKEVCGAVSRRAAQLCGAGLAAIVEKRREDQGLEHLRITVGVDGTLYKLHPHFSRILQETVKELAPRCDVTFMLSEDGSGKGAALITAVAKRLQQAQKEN", "test": "HKDC1 hexokinase inhibitors, dose response, biochemical, W721R variant (AID 504729)", "assay_type": "functional"}, "[5]": {"biological_target": "T2, Replicative DNA helicase DnaB (Mycobacterium tuberculosis, UniProt P9WMR3)", "T2 sequence (P9WMR3 whole entry)": "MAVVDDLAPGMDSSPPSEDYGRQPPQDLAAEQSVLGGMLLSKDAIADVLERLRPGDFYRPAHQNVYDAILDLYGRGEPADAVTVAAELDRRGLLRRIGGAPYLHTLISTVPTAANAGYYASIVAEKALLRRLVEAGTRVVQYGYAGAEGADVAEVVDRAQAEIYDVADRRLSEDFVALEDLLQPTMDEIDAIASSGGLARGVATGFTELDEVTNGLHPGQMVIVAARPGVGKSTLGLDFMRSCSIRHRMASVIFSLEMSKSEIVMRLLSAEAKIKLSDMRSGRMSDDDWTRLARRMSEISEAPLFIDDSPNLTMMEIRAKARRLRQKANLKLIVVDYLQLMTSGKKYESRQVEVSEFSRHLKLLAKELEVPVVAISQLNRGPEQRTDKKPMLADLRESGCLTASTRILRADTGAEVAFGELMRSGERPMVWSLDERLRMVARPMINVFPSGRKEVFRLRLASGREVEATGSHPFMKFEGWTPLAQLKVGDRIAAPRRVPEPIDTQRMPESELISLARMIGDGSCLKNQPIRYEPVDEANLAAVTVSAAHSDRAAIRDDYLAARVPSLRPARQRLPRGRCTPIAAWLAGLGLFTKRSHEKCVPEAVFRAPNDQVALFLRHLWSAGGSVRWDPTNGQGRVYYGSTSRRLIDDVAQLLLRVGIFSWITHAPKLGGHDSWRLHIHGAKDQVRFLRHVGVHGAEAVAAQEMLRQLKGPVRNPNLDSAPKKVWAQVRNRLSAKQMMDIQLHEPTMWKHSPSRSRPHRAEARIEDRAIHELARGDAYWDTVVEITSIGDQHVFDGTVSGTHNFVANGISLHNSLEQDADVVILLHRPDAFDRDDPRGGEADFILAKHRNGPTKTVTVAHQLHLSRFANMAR", "test": "DnaB intein splicing inhibitors, dose response, biochemical, cell-free fluorescence (AID 449749)", "assay_type": "functional"}, "Protein RecA": {"biological_target": "T3, Protein RecA (Mycobacterium tuberculosis, UniProt P9WHJ3)", "T3 sequence (P9WHJ3 whole entry)": "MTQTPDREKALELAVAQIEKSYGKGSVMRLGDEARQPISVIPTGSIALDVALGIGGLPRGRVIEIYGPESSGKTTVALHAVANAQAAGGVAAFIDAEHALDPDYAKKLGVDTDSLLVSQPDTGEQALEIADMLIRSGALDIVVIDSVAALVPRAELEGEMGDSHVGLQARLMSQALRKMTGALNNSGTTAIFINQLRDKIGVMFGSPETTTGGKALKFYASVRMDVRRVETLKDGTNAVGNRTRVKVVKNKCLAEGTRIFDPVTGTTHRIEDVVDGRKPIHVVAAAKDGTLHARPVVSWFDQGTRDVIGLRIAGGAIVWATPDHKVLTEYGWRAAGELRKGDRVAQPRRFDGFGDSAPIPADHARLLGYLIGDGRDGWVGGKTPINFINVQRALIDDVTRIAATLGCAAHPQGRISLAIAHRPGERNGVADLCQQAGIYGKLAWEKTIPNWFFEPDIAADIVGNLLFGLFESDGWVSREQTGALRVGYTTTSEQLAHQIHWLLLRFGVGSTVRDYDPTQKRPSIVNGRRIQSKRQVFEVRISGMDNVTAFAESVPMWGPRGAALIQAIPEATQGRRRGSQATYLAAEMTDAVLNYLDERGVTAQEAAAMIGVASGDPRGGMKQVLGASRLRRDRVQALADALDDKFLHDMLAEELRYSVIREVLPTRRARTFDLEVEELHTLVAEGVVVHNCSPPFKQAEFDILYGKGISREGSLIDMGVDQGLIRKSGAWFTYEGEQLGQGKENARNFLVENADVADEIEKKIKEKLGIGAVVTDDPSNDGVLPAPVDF", "test": "Fluorescence Cell-Free Homogeneous Dose Retest to Identify Inhibitors of RecA-Intein Splicing Activity. [Related pubchem assays (depositor defined):AID2097, AID2223, AID489010, AID492950]", "assay_type": "functional"}, "[6]": {"biological_target": "Luciferin 4-monooxygenase (Photinus pyralis, UniProt P08659)", "sequence (P08659 whole entry)": "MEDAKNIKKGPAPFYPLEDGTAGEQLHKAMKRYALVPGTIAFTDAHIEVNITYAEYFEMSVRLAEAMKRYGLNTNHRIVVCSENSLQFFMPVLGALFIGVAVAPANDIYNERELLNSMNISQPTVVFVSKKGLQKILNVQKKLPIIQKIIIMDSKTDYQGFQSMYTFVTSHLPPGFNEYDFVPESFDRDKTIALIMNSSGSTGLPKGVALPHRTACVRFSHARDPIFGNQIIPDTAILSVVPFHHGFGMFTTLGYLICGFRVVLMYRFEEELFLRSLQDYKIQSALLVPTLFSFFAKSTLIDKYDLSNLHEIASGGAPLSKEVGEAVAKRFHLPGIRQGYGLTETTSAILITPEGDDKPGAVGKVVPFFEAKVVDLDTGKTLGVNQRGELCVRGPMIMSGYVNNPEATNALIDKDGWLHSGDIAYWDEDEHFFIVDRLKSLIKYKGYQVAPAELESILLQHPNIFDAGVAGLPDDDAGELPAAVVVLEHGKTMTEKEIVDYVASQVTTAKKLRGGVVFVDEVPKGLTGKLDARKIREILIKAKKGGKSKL", "test": "firefly luciferase enzyme inhibitors, dose response, biochemical, luminescence (AID 1891)"}, "[7]": {"test": "Luminescence Cell-Based Dose Confirmation HTS to Identify Inhibitors of Platelet Dense Granule Release. [Related pubchem assays: 1663 (Primary HTS), 1678 (Summary of Project)]", "assay_type": "functional"}, "[8]": {"test": "Fluorescence Cell-Based Dose Response to Identify Inhibitors of Thrombin Receptor-Activating Peptide SFLLRN-Mediated P-Selectin Induction on Platelets. [Related pubchem assays: 1663 (Primary HTS), 1889 (retest at dose ), 1891 (counterscreen), 1678 (Project Summary)]", "assay_type": "functional"}, "[9]": {"biological_target": "Lysine-specific demethylase 4C (Homo sapiens, UniProt Q9H3R0)", "sequence (Q9H3R0 whole entry)": "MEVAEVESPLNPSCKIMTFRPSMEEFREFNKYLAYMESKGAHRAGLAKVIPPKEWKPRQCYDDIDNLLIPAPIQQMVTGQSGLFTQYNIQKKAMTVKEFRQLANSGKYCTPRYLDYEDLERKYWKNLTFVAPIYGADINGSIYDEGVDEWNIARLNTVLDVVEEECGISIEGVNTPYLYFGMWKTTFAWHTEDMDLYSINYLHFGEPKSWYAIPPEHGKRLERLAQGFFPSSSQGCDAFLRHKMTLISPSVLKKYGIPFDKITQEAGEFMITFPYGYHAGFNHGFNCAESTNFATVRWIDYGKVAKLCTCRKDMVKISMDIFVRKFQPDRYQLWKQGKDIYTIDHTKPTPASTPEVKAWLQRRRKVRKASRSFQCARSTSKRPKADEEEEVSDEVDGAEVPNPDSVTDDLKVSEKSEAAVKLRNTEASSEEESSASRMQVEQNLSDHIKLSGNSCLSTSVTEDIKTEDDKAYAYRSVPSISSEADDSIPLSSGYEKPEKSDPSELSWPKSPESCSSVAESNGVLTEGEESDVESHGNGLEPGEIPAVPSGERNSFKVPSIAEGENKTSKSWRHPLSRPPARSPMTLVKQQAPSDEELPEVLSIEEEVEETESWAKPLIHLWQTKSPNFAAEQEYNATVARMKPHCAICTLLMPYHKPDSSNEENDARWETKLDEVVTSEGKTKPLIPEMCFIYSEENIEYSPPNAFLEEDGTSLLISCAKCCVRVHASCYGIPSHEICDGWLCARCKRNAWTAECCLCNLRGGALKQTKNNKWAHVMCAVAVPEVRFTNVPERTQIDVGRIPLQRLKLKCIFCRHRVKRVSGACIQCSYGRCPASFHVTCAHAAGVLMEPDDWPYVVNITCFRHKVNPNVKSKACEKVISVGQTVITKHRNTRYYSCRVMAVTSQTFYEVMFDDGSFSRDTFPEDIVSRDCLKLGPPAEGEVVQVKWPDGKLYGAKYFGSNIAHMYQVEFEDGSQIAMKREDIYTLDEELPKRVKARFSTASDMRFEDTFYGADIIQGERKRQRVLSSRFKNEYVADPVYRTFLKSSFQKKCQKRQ", "test": "GASC-1 (JMJD2C) histone demethylase inhibitors, dose response, biochemical, DELFIA europium, cherry-picked samples (AID 488835)", "assay_type": "functional"}, "[10]": {"test": "Luminescence Cell-Based/Microorganism Confirmation at Dose of Inhibitors of Trypanosoma cruzi Infection. [Related pubchem assays: 1885, 1968 ]", "assay_type": "functional"}, "[11]": {"test": "inhibitors of intracellular T. cruzi replication, confirmation, NIH3T3 host cells, beta-gal luminescence (AID 2044);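 note: luminescent beta-galactosidase reporter signal from transgenic T. cruzi replicating inside host cells; inhibitors lower the luminescence signal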", "assay_type": "functional, cell-based"}, "[12]": {"test": "Luminescence Cell-Based Secondary HTS screen to identify cytotoxic compounds of NIH3T3 cells. [Related pubchem assays: 1885, 1968 ]", "assay_type": "functional"}, "[13]": {"test": "cytotoxicity toward NIH3T3 fibroblasts, dose response, counter-screen, cell-based, ATP luminescence, mouse fibroblasts (AID 2010);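 note: cells exposed to compound for about 90 hours before reading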", "assay_type": "functional"}, "[14]": {"test": "inhibitors of Trypanosoma cruzi host-cell infection, confirmation, beta-gal luminescence, NIH3T3 host cells (AID 2630)", "assay_type": "functional, cell-based", "settings": "Mus musculus"}, "CAAX prenyl protease 1": {"biological_target": "CAAX prenyl protease 1 (Saccharomyces cerevisiae S288c, UniProt P47154)", "sequence (P47154 whole entry)": "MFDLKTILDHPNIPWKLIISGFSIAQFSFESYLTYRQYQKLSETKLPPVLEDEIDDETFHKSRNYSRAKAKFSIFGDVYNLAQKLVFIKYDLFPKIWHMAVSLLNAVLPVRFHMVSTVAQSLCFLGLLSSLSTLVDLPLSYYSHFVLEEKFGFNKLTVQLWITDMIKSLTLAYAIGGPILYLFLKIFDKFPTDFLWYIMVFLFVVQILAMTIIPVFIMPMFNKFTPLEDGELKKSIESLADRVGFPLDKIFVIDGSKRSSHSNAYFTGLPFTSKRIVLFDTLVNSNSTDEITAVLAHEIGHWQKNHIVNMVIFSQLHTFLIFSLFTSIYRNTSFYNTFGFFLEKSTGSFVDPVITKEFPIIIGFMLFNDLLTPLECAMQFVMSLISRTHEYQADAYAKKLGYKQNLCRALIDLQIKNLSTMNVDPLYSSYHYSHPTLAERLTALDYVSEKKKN", "test": "Ste24 protease inhibitors, dose response, biochemical, S. cerevisiae, plate reader, cherry-pick (AID 488815)"}, "CAAX prenyl protease 2": {"biological_target": "T4, CAAX prenyl protease 2 (Homo sapiens, UniProt Q9Y256)", "T4 sequence (Q9Y256 whole entry)": "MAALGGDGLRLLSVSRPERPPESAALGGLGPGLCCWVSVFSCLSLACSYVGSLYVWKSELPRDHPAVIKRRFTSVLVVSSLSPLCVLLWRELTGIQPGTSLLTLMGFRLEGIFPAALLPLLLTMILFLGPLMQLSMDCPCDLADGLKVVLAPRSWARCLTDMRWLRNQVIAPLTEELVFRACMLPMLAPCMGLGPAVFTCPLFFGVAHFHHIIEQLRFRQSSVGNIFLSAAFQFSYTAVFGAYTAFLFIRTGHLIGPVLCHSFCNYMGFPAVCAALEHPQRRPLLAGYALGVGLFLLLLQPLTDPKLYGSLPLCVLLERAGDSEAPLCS", "test": "human Rce1 protease inhibitors, dose response, biochemical, yeast membranes, quenched-peptide fluorescence, cherry-pick (AID 588849)"}, "[15]": {"biological_target": "T5, Mannose-6-phosphate isomerase (Homo sapiens, UniProt P34949)", "T5 sequence (P34949 whole entry)": "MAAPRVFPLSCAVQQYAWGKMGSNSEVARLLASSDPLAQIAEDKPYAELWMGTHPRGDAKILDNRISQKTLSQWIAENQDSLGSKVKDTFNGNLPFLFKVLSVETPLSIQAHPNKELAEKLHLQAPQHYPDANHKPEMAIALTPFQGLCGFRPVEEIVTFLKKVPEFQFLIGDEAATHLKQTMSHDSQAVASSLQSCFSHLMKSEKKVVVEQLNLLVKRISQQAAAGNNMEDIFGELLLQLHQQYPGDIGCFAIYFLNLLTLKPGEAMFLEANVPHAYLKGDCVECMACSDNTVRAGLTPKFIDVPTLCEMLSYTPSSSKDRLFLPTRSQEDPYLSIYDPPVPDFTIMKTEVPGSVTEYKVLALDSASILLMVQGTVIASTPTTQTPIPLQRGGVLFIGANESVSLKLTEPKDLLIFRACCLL", "test": "PMI enzyme inhibitors, confirmation, biochemical, fluorescence intensity (AID 1535)"}, "Phosphomannomutase 2": {"biological_target": "Phosphomannomutase 2 (Homo sapiens, UniProt O15305)", "sequence (O15305 whole entry)": "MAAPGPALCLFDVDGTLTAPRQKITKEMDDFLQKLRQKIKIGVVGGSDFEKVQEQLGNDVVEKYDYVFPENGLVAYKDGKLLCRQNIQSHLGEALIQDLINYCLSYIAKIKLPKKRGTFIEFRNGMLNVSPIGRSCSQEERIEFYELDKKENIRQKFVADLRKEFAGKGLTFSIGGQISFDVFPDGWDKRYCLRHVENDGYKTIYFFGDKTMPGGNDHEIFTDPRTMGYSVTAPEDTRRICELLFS", "test": "Counter screen SAR assay for PMM2 inhibitors via a fluorescence intensity assay. [Related pubchem assays (depositor defined):AID1545, AID1574]"}}, "note": "Active and inactive are the calls of the source.", "data": [{"smiles": "O=C1CC(c2ccccc2)C(=O)N1c1cccc(O)c1", "note": "(stereo unspecified)", "values": [{"measurement": "AC50", "setting": "[1]", "value": "53.6 µM (active)"}]}, {"smiles": "O=C(/C=C/c1cccs1)Nc1scc(-c2ccccc2)c1C(=O)O", "values": [{"measurement": "IC50", "setting": "SUMO-activating enzyme [2]", "value": "2.74 µM (active)"}, {"measurement": "IC50", "setting": "SUMO-activating enzyme [3]", "value": "9.84 µM (active)"}, {"measurement": "IC50", "setting": "SUMO E1/E2", "value": "6.11 µM (active)"}, {"measurement": "IC50", "setting": "[4]", "value": "5.76 µM (active)"}, {"measurement": "IC50", "setting": "Hexokinase HKDC1", "value": "7 µM (active)"}, {"measurement": "AC50", "setting": "[5]", "value": "23.3 µM (active)"}, {"measurement": "EC50", "setting": "Protein RecA", "value": "10.6 µM (active)"}]}, {"smiles": "COc1ccc(/C=N/N(C)c2cc(=O)n(C)c(=O)[nH]2)cc1OC", "values": [{"measurement": "EC50", "setting": "[6]", "value": "> 112 µM (not active)"}, {"measurement": "EC50", "setting": "[7]", "value": "0.693 µM (active)"}, {"measurement": "EC50", "setting": "[8]", "value": "< 1 µM (active)"}, {"measurement": "AC50", "setting": "[9]", "value": "17.8 µM (active)"}]}, {"smiles": "CC(C)Oc1cccc(C(=O)C2CCCN(Cc3cnc(N4CCCC4)s3)C2)c1", "note": "(stereo unspecified)", "values": [{"measurement": "EC50", "setting": "[10]", "value": "0.606 µM (active)"}, {"measurement": "EC50", "setting": "[11]", "value": "0.14 µM (active)"}, {"measurement": "EC50", "setting": "[12]", "value": "63.8 µM (active)"}, {"measurement": "EC50", "setting": "[13]", "value": "> 60 µM (not active)"}, {"measurement": "EC50", "setting": "[14]", "value": "0.607 µM (active)"}]}, {"smiles": "CCOc1cccc(-c2nn(-c3ccccc3)cc2/C=C(/C#N)C(=O)NCCCn2ccnc2)c1", "values": [{"measurement": "AC50", "setting": "CAAX prenyl protease 1", "value": "7.93 µM (active)"}, {"measurement": "AC50", "setting": "CAAX prenyl protease 2", "value": "22.3 µM (active)"}]}, {"smiles": "Cc1cccc(/N=c2\\ssnc2Cl)c1", "values": [{"measurement": "IC50", "setting": "[15]", "value": "> 100 µM (inactive)"}, {"measurement": "IC50", "setting": "Phosphomannomutase 2", "value": "> 100 µM (inactive)"}]}]}
